Results as given in ChEMBL document CHEMBL3886502, “Pyrrolinone carboxamide compounds useful as endothelial lipase inhibitors” (2016).

Each molecule was assayed against T1, Endothelial lipase (Homo sapiens, UniProt Q9Y5X9) (assay: Enzyme Assay: The enzymatic assay was measured using white, opaque 96-well half area plates. Each well contained 60 uL of assay buffer (50 mM HEPES pH 8.0, 50 mM NaCl and 1 mM CaCl2) and 2 ul of a DMSO solution containing compound of interest. Conditioned media obtained from HT-1080 cells, which were transformed by RAGE technology (Athersys) to overexpress endogenous EL, was added and the reaction was allowed to incubate for 20 min at 37° C. with gentle agitation. The reaction was started by the addition of 20 uL of a 1:4 dilution of vesicles. The final total reaction volume was 100 uL. The reaction rates were measured on a Gemini plate reader with an excitation wavelength of 488 nm and a emission of 530 nm. Readings were taken every 20 seconds for 10 min with agitation between each reading.).
T1 sequence (Q9Y5X9 whole entry): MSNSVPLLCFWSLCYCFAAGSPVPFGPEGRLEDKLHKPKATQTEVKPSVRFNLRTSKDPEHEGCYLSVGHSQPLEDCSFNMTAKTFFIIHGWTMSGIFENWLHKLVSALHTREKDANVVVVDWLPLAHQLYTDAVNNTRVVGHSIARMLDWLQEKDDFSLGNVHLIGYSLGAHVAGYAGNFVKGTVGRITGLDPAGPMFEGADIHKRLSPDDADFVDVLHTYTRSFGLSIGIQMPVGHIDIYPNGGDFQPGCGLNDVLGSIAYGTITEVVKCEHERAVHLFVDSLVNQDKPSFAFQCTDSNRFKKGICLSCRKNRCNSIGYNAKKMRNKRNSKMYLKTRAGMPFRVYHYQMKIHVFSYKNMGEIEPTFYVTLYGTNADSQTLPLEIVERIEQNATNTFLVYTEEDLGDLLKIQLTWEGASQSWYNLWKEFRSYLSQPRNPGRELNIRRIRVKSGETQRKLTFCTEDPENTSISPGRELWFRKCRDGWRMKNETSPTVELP
Format: cell-based

IC50 [nM]	Compound
488	O=C(NCCCc1ccc(Cl)c(Cl)c1)C1=C(O)C(=O)N(Cc2ccccc2C(=O)O)C1
436	CN1CC(C(=O)NCCCc2ccccc2C(F)(F)F)=C(O)C1=O
486	CC1C(C(=O)NCCCc2ccc(Cl)c(Cl)c2)=C(O)C(=O)N1CCc1ccc(F)cc1 (stereo not drawn)
